These results are taken from patent publication US20120029002A1, “BENZIMIDAZOLE AND PYRAZOLOPYRIDINE DERIVATIVES FOR TREATING AND/OR PREVENTING CARDIOVASCULAR DISEASES” (BAYER SCHERING PHARMA AKTIENGESELLSCHAFT, priority 2009, published 2012).

pIC50: −log10 of the molar value.

The test relates to aorta rings. Briefly: Vasorelaxant effect in vitro (phenylephrine-contracted rabbit aorta rings). It counts as cell-based, Rabbits. Conditions: Oryctolagus cuniculus; concentration necessary to reduce the height of the phenylephrine-induced contraction of rabbit aorta rings by 50%; organ bath, 37° C., 0.1% DMSO. As for the experimental part:
B-1. Vasorelaxant effect in vitro
Rabbits are stunned by a blow to the neck and exsanguinated. The aorta is removed, freed from adhering tissue and divided into rings of a width of 1.5 mm The rings are placed individually under an initial tension in 5 ml organ baths with Krebs-Henseleit solution which is at 37° C., is gassed with carbogen and has the following composition (in each case mM): NaCl: 119; KCl: 4.8; CaCl2×2 H2O: 1; MgSO4×7 H2O: 1.4; KH2PO4: 1.2; NaHCO3: 25; glucose: 10. The force of contraction is detected with Statham UC2 cells, amplified and digitized via A/D converters (DAS-1802 HC, Keithley Instruments, Munich) and recorded in parallel on chart recorders. Contractions are induced by cumulatively adding increasing concentrations of phenylephrine to the bath. After several control cycles, the substance to be investigated is added in each further run in increasing dosage, and the height of the contraction achieved is compared with the height of the contraction reached in the last preceding one. The concentration necessary to reduce the height of the control value by 50% is calculated from this (IC50 value). The standard application volume is […] the proportion of DMSO in the bath solution corresponds to 0.1%.
The pIC50 is −log10 of the IC50, conventionally taken in molar units. Low readings indicate a high IC50, high ones a low IC50. In turn, `Nc1nc(-n2nc(Sc3ccccc3F)c3ccccc32)nc(N)c1N` [Example 3, 2-{3-[(2-Fluorophenyl)sulphanyl]-1H-indazol-1-yl}pyrimidine-4,5,6-triamine] had a pIC50 of 5.67.
`CC(C)OC(=O)Nc1c(N)nc(-n2nc(Oc3ccccc3F)c3ccccc32)nc1N` [Example 19, Propan-2-yl{4,6-diamino-2-[3-(2-fluorophenoxy)-1H-indazol-1-yl]pyrimidin-5-yl}carbamate] had a pIC50 of 5.25.
The same measure for `CC(C)OC(=O)Nc1c(N)nc(-n2nc(Sc3ccccc3F)c3ccccc32)nc1N` [Example 12, Propan-2-yl (4,6-diamino-2-[3-[(2-fluorophenyl)sulphanyl]-1H-indazol-1-yl]pyrimidin-5-yl)-carbamate]: 5.31.
To `CC(C)OC(=O)Nc1c(N)nc(-n2nc(Sc3ccccc3F)c3ncccc32)nc1N` [Example 9, Propan-2-yl (4,6-diamino-2-{3-[(2-fluorophenyl)sulphanyl]-1H-pyrazolo[4,3-b]pyridin-1-yl}pyrimidin-5-yl)carbamate] belongs 5.84.
